Data: patent US6887983B2, “Purified 20 kDA presenilin 2 C-terminal fragment and methods of screening for compounds that inhibit proteolysis of presenilin 2” (The General Hospital Corporation, priority 1997, dated 2005)
Where a SMILES comes first, the peptide text is derived from it. The star is where a group is joined. Cbz = O=C(OCc1ccccc1)*; CH2F = FC*

Columns and labels:
[1] = test system: full-length 54 kDa PS2 cleavage; experiment: Cleavage of full-length PS2 during etoposide-induced apoptosis in inducible H4 cells (N-terminal FLAG PS2); assay type: cell-based, human; conditions: increasing concentrations of inhibitor, 20 μM etoposide; FIG. 8
Description: FIG. 8. Cleavage of full-length 54 kDa PS2 by a zVAD-sensitive protease activated during etoposide-induced apoptosis. Inducible H4 cells expressing PS2 containing N-terminal FLAG epitope were induced for 12 hours and further incubated with media containing 20 μM etoposide. Alternative (34 kDa NTF) and normal (f; 30 kDa) N-terminal cleavage products detected by anti-FLAG antibody and alternative (20K CTF) and endogenous plus normal C-terminal cleavage products (e/f) detected by αPS2Loop were indicated by arrows.
Thus, whether the alternative PS2-CTF was generated from full-length 54 kDa PS2 during apoptosis was tested. […] The alternative NTF was 34 kDa while the “normal” NTF, labeled as band f in the top panel of FIG. 8, was 30 kDa. The alternative PS2 cleavage fragments were first observed at 3 hours post-treatment with etoposide.

[2] = test system: generation of alternative 14 kDa PS1-CTF; experiment: Generation of alternative 14 kDa PS1-CTF in inducible H4 cells overexpressing PS1; assay type: cell-based, human; conditions: PS1-overexpressing cell lines
Description: FIG. 11. […] Inducible PS1 cells were generated similar to as described herein. High-(clone 1.22) and low-(clone 1.24) expressing clones were grown in the presence or absence of tetracycline for 24 hours. As similar to those shown for PS2, multiple PS1 CTFs were detected in the PS 1-overproducing cells, including 23 kDa endogenous PS1 CTF (arrow e′), transgene-derived normal cleavage product (arrow f′), and aberrant 14 kDa PS1 fragment. (b, c, d) Cleavage of endogenous PS1 CTF during STS-induced apoptosis. Identical samples used for FIG. 8 were stained with αPS1 Loop. PS1 CTF was further cleaved into smaller 14 kDa fragment during apoptotic process. […] Asterisk indicates non-specific bands.
The point mutations in the potential aspartate cleavage sites of PS2 (D326A and D329A) and control aspartate (D308A) were introduced into a PS2 open reading frame by site-directed mutagenesis using Muta-Gene phagemid kit (BioRad). The inducible construct encoding the full-length PS1 with 3′ FLAG epitope sequence was generated as described for PS2 herein. […]
Next, whether PS1, a closely related homologue of PS2, also undergoes alternative cleavage when overexpressed and/or during apoptosis was tested. […] However, in the clonal cell line expressing lower levels of PS1 (clone IF24), full-length PS1 and the normal CTF were predominantly detected while the alternative 14 kDa CTF fragment was not detectable.

endogenous PS1 cleavage = experiment: Apoptosis-associated cleavage of endogenous PS1 in H4 cells; assay type: cell-based, human; conditions: STS- or etoposide-induced, FIGS. 11c and 11d
Description: FIG. 11. […] Inducible PS1 cells were generated similar to as described herein. High-(clone 1.22) and low-(clone 1.24) expressing clones were grown in the presence or absence of tetracycline for 24 hours. […] Identical samples used for FIG. 8 were stained with αPS1 Loop. […] Asterisk indicates non-specific bands.
Whether endogenous PS1 is cleaved by CP32-like proteases following induction of apoptosis was also tested.

[3] = test system: generation of the 20 kDa PS2-CTF; experiment: Generation of 20 kDa PS2-CTF in H4 cells overexpressing PS2, Western blot with αPS2Loop; conditions: FIG. 7d; for generation of the 20 kDa PS2-CTF: cells overexpressing PS2, induced 24 h, inhibitor added at induction
Description: Aberrant 20 kDa PS2 C-terminal fragment (CTF) in transfected cells. (a) Detection of the endogenous PS2 CTF in human brain. […] (b) Detection of multiple PS2 CTFs in the inducible H4 cells overexpressing C-terminal epitope-tagged PS2 by Western blotting using αPS2Loop. […] (c) Selective localization of the 20 kDa CTF in the non-ionic detergent-resistant cellular fraction. Wild-type PS2 cells were induced for 48 hours, fractionated into detergent-insoluble/resistant (lane 2) and detergent soluble (lane 3) fractions and wash (lane 4), and then analyzed by Western blotting with αPS2Loop. Total SDS lysates are shown in lane 1. […] The zFA-fmk (cathepsin B inhibitor) was used as a control for fluoromethylketone (fmk) group. […] Inducible PS2 were grown in the presence (Uninduced, left panel) or absence (Induced, right panel) of tetracycline for 24 hours, and inhibitors or solvent (DMSO) were added at the time of the induction.
(§2) For some experiments, protein quantitation, SDS-PAGE (4-20% or 16%) and Western blotting were carried out as described, supra, with the exception of using the lysis buffer (10 mM Tris-HCl [pH 7.4], 150 mM NaCl, 1% Triton X-100, 0.5% NP-40, 5 mM EDTA plus either 0.3% SDS or 1% Sarkosyl) with protease inhibitors, allowing for the efficient extraction of the 20 kDa C-terminal fragment from the detergent-resistant fractions.

[4] = test system: endogenous PS2 cleavage in H4 human neuroglioma cells; experiment: Apoptotic cleavage of endogenous PS2 in untransfected H4 cells (staurosporine or etoposide), Western blot
Description: H4 human neuroglioma cells were treated with 1 μM STS for timed intervals indicated on the top panels and lysates were analyzed by Western blotting using αPS2Loop along with antibodies to poly(ADP-ribose) polymerase (PARP), CPP32, and HSP70. […] Cells were pre-treated with inhibitors for 1 hour, further incubated in the presence or absence of 2 μM STS (b) or 20 μM etoposide for 18 hours. and lysates were analyzed by Western blotting. […] (e) Dose-response curves of the effect of zVAD-fmk (Δ) and zDEVD-fmk (o) on STS-induced apoptotic cleavage of PS2. Relative amounts of 20 kDa PS2 fragments from the cells co-treated with 1 μM STS (18 hours) plus either zVAD-fmk or zDEVD-fmk were measured by the transmittance analysis of the Western blot as described (Bush, A. I., et al., Ann. Neurol. 32:57-65 (1992)). The amounts of 20 kDa fragment from the cells treated with STS alone were standardized as 100%. With the exception of (d) (4-20% gradient gel), all SDS-PAGE were performed using 16% gels.
as §2

polyubiquitinated PS2 = experiment: Immunoprecipitation of ubiquitin-positive HMW-PS2 with anti-FLAG, anti-ubiquitin immunoblot; assay type: cell-based, human; conditions: 50 μM ALLN; C-terminal FLAG PS2; FIG. 5B
Description: (§1) FIG. 5. Polyubiquitination and proteasomal degradation of PS2. […] Detergent-soluble (Soluble) and detergent-resistant fractions (Insoluble) were prepared and analyzed by Western blotting. FIG. 5B) immunoprecipitation of ubiquitin-positive high molecular weight forms of PS2 (HMW-PS2) by anti-FLAG antibodies. […] FIG. SC) binding of PS2 modified with epitope-tagged ubiquitin (H6M-Ub) to nickel affinity columns. Plasmid pCW7 encoding wild-type (H6M-Ub) or pCW8 encoding dominant-negative ubiquitin (H6M-UbK48R) was transiently transfected into uninduced PS2 cells (clone WF2). […] Lysates were subjected to nickel affinity chromatography as described herein and bound materials were analyzed by Western blotting using anti-PS2Loop antibodies.
Protein samples were quantiated by the BCA protein assay kit (Pierce). SDS-PAGE was carried out using 4-20% gradient Tris-glycine gels under reducing conditions. Proteins were transferred to polyvinylidene difluoride membrane (Bio-Rad) using a semi-dry electrotransfer system (Hoefer). The blots were blocked with 5% non-fat dry milk in TBST (25 mM Tris (pH 7.6), 137 mM NaCl, 0.15% Tween 20) for 1.5 h, incbated primary antibodies (M2, 3 μg/ml; D-8, 1 to 1000; polyclonal anti-ubiquitin, 1 to 1000; Ubi-1, 1 to 1500) for 1.5 h, and secondary antibodies (horseradish perodixase-conjugated anti-mouse or rabbit antibodies, 1 to 5000) in TBST. […]

[5] = test system: polyubiquitinated HMW-PS2; experiment: Nickel affinity chromatography of PS2 modified with His-tagged ubiquitin, anti-PS2Loop blot; assay type: cell-based, human; conditions: induced cells treated with ALLN
Description: as §1
PS2 cells were transiently transfected with ubiquitin constructs either pCW7 (H6M-Ub) or pCW8 (H6M-UbK48R) using LipofectAMINE™ according to the manufacturer's instruction (LifeTtechnologies, Inc.). […] Samples were concentrated by freeze-drying, and PS2 immunoreactivity was detected by Western blotting using anti-PS2Loop antibodies.
To determine whether polyubiquitinated HMW-PS2 serves as a degradation intermediate for the full-length PS2, constructs encoding wild-type (H6M-Ub) and dominant-negative ubiquitin (H6M-UbK48R), tagged with poly((6X)-histidine) were transiently transfected into uninduced cells. […]

| Compound | generation of both alternative PS2 cleavage products [1] | generation of alternative 14 kDa PS1-CTF [2] | apoptosis-associated cleavage of endogenous PS1 (endogenous PS1 cleavage) | apoptosis-associated cleavage of endogenous PS1 (endogenous PS1 cleavage; listed as zVAD) | generation of the 20 kDa PS2-CTF [3] | generation of the 20 kDa PS2-CTF ([3]; listed as zVAD) | levels of the endogenous 25 kDa CTF, the 26 kDa transgene-derived CTF, or other PS2 species ([3]; cells overexpressing PS2) | concentration equally effective in inhibiting apoptosis-induced cleavage of PS2 ([4]; 1 μM STS 18 h, relative amount of 20 kDa fragment, FIG. 9e) [µM] | normal processing of PS2 (generation of 25 kDa endogenous fragment) ([4]; H4 cells undergoing apoptosis) | STS-induced or etoposide-induced cleavage of PS2, PARP, and pro-CPP32 ([4]; H4 cells, 2 μM STS or 20 μM etoposide 18 h, FIG. 9b, c) | alternative cleavage of endogenous PS2 during staurosporine-induced or etoposide-induced apoptosis ([4]; H4 cells, inhibitor pre-treatment 1 h, 2 μM STS or 20 μM etoposide 18 h, FIGS. 9b-9d) | Ubiquitin-positive HMW-PS2 (polyubiquitinated PS2) | polyubiquitinated HMW-PS2 bound to nickel column ([5]; transfected with H6M-Ub, FIG. 5C lane 10) | polyubiquitinated HMW-PS2 bound to nickel column ([5]; transfected with dominant-negative H6M-UbK48R, FIG. 5C lane 12) |
| --- | --- | --- | --- | --- | --- | --- | --- | --- | --- | --- | --- | --- | --- | --- |
| COC(=O)C[C@H](NC(=O)[C@H](C)NC(=O)[C@@H](NC(=O)OCc1ccccc1)C(C)C)C(=O)CF [zVAD-fmk] (Cbz-Val-Ala-Asp(OMe)-CH2F) | inhibited the generation of both alternative cleavage products | blocked | Inhibition of STS-induced (c) and etoposide-induced (d) PS1 cleavage | blocked | blocked | blocked the generation of the 20 kDa PS2-CTF | no effect | 25 | no effect on normal processing of PS2 | Inhibition of STS-induced (b) or etoposide-induced (c) cleavage of PS2, PARP, and pro-CPP32 | specifically blocked |  |  |  |
| N-acetyl-L-leucinal-L-norleucinal [ALLN] |  |  |  |  |  |  |  |  |  |  |  | significantly increased | abundant amounts of polyubiquitinated HMW-PS2 | a small amount of polyubiquitinated HMW-PS2 |
